Data on eight compounds can be found in PMC11443494, “Dynamical responses predict a distal site that modulates activity in an antibiotic resistance enzyme” (Chemical Science, 2024).

Like-named read-outs stand apart in the source and are kept apart here.

Test [1] deals with T1, KPC-2^G89D (Klebsiella pneumoniae, UniProt Q9F663, G88D).
T1 construct: made in house; host or cells: E. coli
Description: Steady-state kinetics of β-lactam hydrolysis by KPC-2^G89D. The format is biochemical. The following applies: for decrease in catalytic efficiency (kcat/KM): KPC-2^G89D compared to wild-type KPC-2; for Kcat / K M: KPC-2^G89D, 25 °C, standard error in parentheses; for Kcat: 10 mM HEPES pH 7.5, 150 mM NaCl, BSA; for K M: pH 7.5. The procedure: (§1) Antibiotic hydrolysis was measured at 25 °C in kinetics buffer (10 mM HEPES, pH 7.5 and 150 mM NaCl, 100 μg per mL bovine […] albumin (BSA)). […] Hydrolysis was followed using Greiner half area 96-well plates and a BMG CLARIOstar Plus microplate reader. GraphPad Prism 9.3.1 (GraphPad Software, La Jolla, CA, USA; https://www.graphpad.com) was used to calculate kinetic parameters. Initial rates of antibiotic hydrolysis measured across a range of antibiotic concentrations were used to calculate steady-state parameters according to the Michaelis–Menten equation.

Test [2] concerns SHV-38. On the set-up: method as in Poirel et al [3]. The following applies: ref Poirel et al [3]; cited from earlier work.
Test [3] addresses T2, KPC-2 (Klebsiella pneumoniae, UniProt Q9F663).
T2 construct: made in house
The format is biochemical. As for the experimental part:
as §1

For test [4], the system named is SHV-2. On the set-up: method as in Liakopoulos et al. [2]. The following applies: ref Liakopoulos et al. [2], cited from earlier work.
In test [5] the target is T2, KPC-2. Briefly: Inhibition of nitrocefin hydrolysis (IC50), KPC-2. The format is biochemical. The following applies: wild-type KPC-2; nitrocefin 200 μM, 10 minute pre-incubation. As for the experimental part: Both inhibitors were dissolved in kinetics buffer.
The target of test [6] is T1, KPC-2^G89D. Description: Inhibition of nitrocefin hydrolysis (IC50), KPC-2^G89D. It counts as biochemical. The following applies: nitrocefin 200 μM, 10 minute pre-incubation of enzyme and inhibitor.
The test system of test [7] is SHV-1. On the set-up: method as in Liakopoulos et al. [2]. The following applies: ND = no detected hydrolysis, ref Liakopoulos et al. [2]; cited from earlier work.
The target of test [8] is T2, KPC-2. Briefly: Pre-steady-state (stopped-flow tryptophan fluorescence) binding kinetics, KPC-2. The procedure:
(§2) Pre-steady state kinetics were measured by mixing meropenem with KPC-2 or KPC-2^G89D (both 10 nM concentration) in an Applied Photophysics SX20 stopped-flow spectrometer connected to a photodiode array detector in kinetics buffer. Data were fitted from 0.005 to 0.3 s for both 5 repeats of each of KPC-2 : meropenem and KPC-2^G89D : meropenem. k1 and k−1 were calculated from the gradient and the y-intercept of the kobsvs. substrate concentration curves. KD is calculated using the following equation: [drawing 1]
(§3) Figure S11: Binding kinetics of meropenem calculated using pre-steady state kinetics. a) Kinetic model for binding and hydrolysis of β-lactam substrates by serine β-lactamases. KD is calculated by k-1 / k1. Normalised tryptophan fluorescence curves, averaged over 5 transients, measured from 0.005 s to 0.25 s, for meropenem binding to KPC-2 (b) and KPC-2G89D (both at 10 nM) (c) were used to calculate kobs over a range of concentrations using one phase decay curve fitting. kobs was plotted for KPC-2 (d) and KPC-2G89D (e), and a linear regression used to calculate the y-intercept (k-1) and the slope (k 1). The calculated KD values are 3.7 μM and 5.9 μM for KPC-2 and KPC-2G89D. […]

Test [9] concerns the target T1, KPC-2^G89D. Briefly: Pre-steady-state (stopped-flow tryptophan fluorescence) binding kinetics, KPC-2^G89D. As for the experimental part: as §2, §3
The mark [10] stands for this setting: KPC-2, 25 °C, 10 mM HEPES pH 7.5, 150 mM NaCl, BSA, standard error in parentheses.
The mark [11] stands for this setting: KPC-2, 25 °C, pH 7.5, standard error in parentheses.

T2 sequence (Q9F663 25-293 limits assumed): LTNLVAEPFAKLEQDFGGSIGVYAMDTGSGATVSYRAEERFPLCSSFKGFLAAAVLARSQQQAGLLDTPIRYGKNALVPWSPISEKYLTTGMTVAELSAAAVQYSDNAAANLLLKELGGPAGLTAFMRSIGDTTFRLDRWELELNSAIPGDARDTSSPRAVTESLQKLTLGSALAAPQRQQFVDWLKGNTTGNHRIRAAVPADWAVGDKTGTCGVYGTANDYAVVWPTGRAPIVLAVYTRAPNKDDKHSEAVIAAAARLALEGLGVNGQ
T1 sequence (Q9F663 25-293 G88D): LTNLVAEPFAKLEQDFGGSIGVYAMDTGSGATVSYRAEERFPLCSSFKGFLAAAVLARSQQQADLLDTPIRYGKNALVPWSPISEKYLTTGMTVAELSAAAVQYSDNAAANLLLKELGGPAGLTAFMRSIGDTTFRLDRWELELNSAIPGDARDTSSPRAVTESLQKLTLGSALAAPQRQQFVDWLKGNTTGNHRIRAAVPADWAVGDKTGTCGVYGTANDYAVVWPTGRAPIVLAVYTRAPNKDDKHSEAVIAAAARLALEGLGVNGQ

On to `C[C@@H](O)[C@H]1C(=O)N2C(C(=O)O)=C(SCCN=CN)C[C@H]12` [Imipenem], for which, in test [1], the “decrease in catalytic efficiency (kcat/KM)” value came out at 10 fold, the Kcat was 2.8 (0.12) s^−1 and the “K M” value was 68.9 (10.2) μM. Moreover, in test [2], the Kcat is 0.01 s⁻¹ and the Km (usually the substrate concentration at which the rate is half of its maximum) is 24 µM. Further, in [3] (setting [10]), the Kcat is given as 22 (0.43) s^−1. The “K M” value in test [3] (setting [11]) is 72 (3.2) μM.

Consider `CC(C)(O/N=C(\C(=O)N[C@@H]1C(=O)N2C(C(=O)[O-])=C(C[n+]3ccccc3)CS[C@H]12)c1csc(N)n1)C(=O)O` [Ceftazidime], for which the Km in test [4] (ND = no detected hydrolysis) is 24 µM. For the same compound, the Vmax – broadly, the top rate of the reaction or transport when substrate is in excess – in [4] was 6.5 µM/min. Further, in test [2], the Kcat was 110 s⁻¹ and the Km is 3800 µM.

Regarding `O=C(NNC(=O)[C@@H]1CC[C@@H]2CN1C(=O)N2OS(=O)(=O)O)[C@@H]1CCCNC1` [Zidebactam], the IC50 (commonly the concentration needed to halve the response being measured) came to 0.06 nM in test [5] and 0.7 nM in test [6].

Regarding `CC1(C)S[C@@H]2[C@H](NC(=O)[C@H](N)c3ccccc3)C(=O)N2[C@H]1C(=O)O` [Ampicillin], in test [1], the Kcat is listed as 160 (5.83) s^−1 and the “K M” value is given as 201 (36.3) μM. For the same compound, in test [3] (pH 7.5), the “K M” value was 271 (44.7) μM and the Kcat was 82.3 (3.92) s^−1.

Consider `CO/N=C(\C(=O)N[C@@H]1C(=O)N2C(C(=O)O)=C(COC(C)=O)CS[C@H]12)c1csc(N)n1` [Cefotaxime], for which the results for the Kcat in [4] (ND = no detected hydrolysis) and in test [2] were 11 s⁻¹ and 1 s⁻¹, respectively. Besides, the Km in [4] (ND = no detected hydrolysis) is 18 µM; in [2] it was 800 µM. In addition, the Vmax in test [4] is 70 µM/min.

For the compound `CC1(C)S[C@@H]2[C@H](NC(=O)Cc3ccccc3)C(=O)N2[C@H]1C(=O)O` [Benzylpenicillin], the figures for the Km in [4] (ND = no detected hydrolysis), in [2] and in test [7] were 3.8 µM, 13 µM and 20 µM, respectively. Also, the Vmax in test [4] is 100 µM/min. For the same compound, the Kcat in test [2] was 100 s⁻¹; in test [7], 455 s⁻¹.

Take `CC(=O)OCC1=C(C(=O)O)N2C(=O)[C@@H](NC(=O)Cc3cccs3)[C@H]2SC1` [Cephalothin]: the values for the Kcat in test [2] and in test [7] were 5 s⁻¹ and 10 s⁻¹, respectively. For the same compound, the results for the Km in test [2] and in test [7] were 100 µM and 26 µM, respectively.

Regarding `C[C@@H](O)[C@H]1C(=O)N2C(C(=O)O)=C(S[C@@H]3CN[C@H](C(=O)N(C)C)C3)[C@H](C)[C@H]12` [Meropenem], the “decrease in catalytic efficiency (kcat/KM)” value in test [1] is recorded as 100 fold. In addition, the Kcat in test [1] was 0.2 (1 × 10^−2) s^−1; in test [3] (setting [10]) it was 21.5 (0.12) s^−1. The “K M” value in test [1] is given as 7.9 (1.57) μM; in test [3] (setting [11]), 7.1 (1.01) μM. Further, the Kd (usually the equilibrium constant for the complex coming apart) stood at 3700 nM in test [8] and 5900 nM in test [9].
